Test results from PMC12412453 (Toxicology, 2021).
“And” between values parts separate entries of the source, which are not always exact repeats. Identical values can stand only once. Like-named read-outs stand apart in the source and are kept apart here.

Columns and labels:
[1] = tested on: primary human hepatocytes (PHHs); conditions: ref Seo et al., 2020, cited from earlier work; for BMD50: PHH CometChip data reanalyzed using PROAST; for BMDL50–BMDU50 / Potency ranking / LEC (lowest effective concentration) / BMDU/BMDL / DNA damage (ratio of %DNA in tail at highest concentration to vehicle control): PHH; for BMDL50–BMDU50: 90 % confidence interval of BMD50; for Potency ranking: rank by BMD50 among nine positive compounds; for LEC (lowest effective concentration): lowest concentration positive in comet assay
[2] = tested on: primary human hepatocytes (PHHs); conditions: ref Seo et al., 2020, cited from earlier work; for Max. con.: maximum concentration
[3] = reported findings; ref References column of Table 1; cited from earlier work
[4] = reported findings; ref References column of Table 1; cited from earlier work; remark: listed apart in the source
[5] = tested on: primary macaque hepatocytes (PMHs); assay: Cytotoxicity by ATP assay; conditions: for Max. con.: maximum concentration
[6] = tested on: primary macaque hepatocytes (PMHs); assay: CometChip assay; conditions: for BMDU/BMDL / DNA damage (ratio of %DNA in tail at highest concentration to vehicle control) / LEC (lowest effective concentration) / BMDL50–BMDU50 / Potency ranking: PMH; for BMD50: PMH CometChip data, PROAST exponential model; for DNA damage (ratio of %DNA in tail at highest concentration to vehicle control) / LEC (lowest effective concentration): 24-h treatment; for LEC (lowest effective concentration): lowest concentration positive in comet assay; for BMDL50–BMDU50: 90 % confidence interval of BMD50; for Potency ranking: rank by BMD50 among nine positive compounds; for fold increase in % tail DNA (DNA damage) compared to the vehicle control: PMHs, highest acceptable concentration, range given for four compounds together
[7] = reported findings; ref References column of Table 1; cited from earlier work; remark: listed apart in the source
cynomolgus monkeys = conditions: dosed cynomolgus monkeys; ref Thorgeirsson et al., 1995; cited from earlier work
[8] = tested on: primary macaque hepatocytes (PMHs); conditions: rhesus macaque, 24 h
[9] = Cytotoxicity by ATP assay; conditions: rhesus macaque, primary macaque hepatocytes (PMHs)

| Structure (SMILES) | BMD50 [1] [µM] | BMDL50–BMDU50 [1] [µM] | Potency ranking [1] | DNA damage (ratio of %DNA in tail at highest concentration to vehicle control) [1] | Cytotoxicity ([2]; PHH, ATP assay, 24-h treatment) | Max. con. ([2]; PHH) | Genotoxicity assay findings in vitro [3] | Genotoxicity assay findings in vivo [4] | Max. con. ([5]; PMH, 24-h treatment) | Cytotoxicity ([5]; PMH, ATP assay, 24-h treatment) | Carcinogenicity [7] | also measured |
| --- | --- | --- | --- | --- | --- | --- | --- | --- | --- | --- | --- | --- |
| Cc1ccc(N)cc1N [2,4-DAT, 2,4-diaminotoluene] | 880.6 | 489 to 1580 | 9 | ++ (2 < ratio ≤ 5) | + (11–30 %) | 8000 µM | (+) for MLA, CA, MN, comet, and UDS; (−) for comet in HepaRG and Hprt | (+) for UDS and comet; (+/−) for MN in BM | 8000 µM | + (11–30 %) |  | LEC (lowest effective concentration) [1]: 1414 µM; BMDU/BMDL [1]: 3.2; BMD50 fold higher in PMHs than in PHHs (lower in PHHs) ([6]; CometChip BMD50, PMH vs PHH): 3.2 fold; BMDU/BMDL [6]: 2.6; BMD50 [6]: 2831 µM; DNA damage (ratio of %DNA in tail at highest concentration to vehicle control) [6]: ++ (2 < ratio ≤ 5); LEC (lowest effective concentration) [6]: 8000 µM; BMDL50–BMDU50 [6]: 1790 to 4660 µM; Potency ranking [6]: 9 |
| CCCC(O)C(CC)CO (centres unmarked) [2-Ethyl-1,3-hexanediol] |  |  |  | − (The ratio ≤ 1.5-fold and p ≥ 0.05) | + (11–30 %) | 10,000 μM | (+) for CA + S9; (−) for MLA, Hprt, MN, and SCE |  | 10,000 μM | + (11–30 %) | (−) in dermal studies |  |
| O=[N+]([O-])c1cc[n+]([O-])c2ccccc12 [4-NQO, 4-nitroquinoline 1-oxide] | 0.3 | 0.1 to 0.6 | 1 |  | + (11–30 %) | 5 µM | (+) for CA, MLA, Pig-a, comet |  | 7.5 µM | + (11–30 %) |  |  |
| Cc1cnc2ccc3c(nc(N)n3C)c2n1 [8-MeIQx, 2-amino-3,8-dimethylimidazo[4,5-f]-quinoxaline] |  |  |  |  |  |  |  |  |  |  |  | DNA adducts in several organs, particularly liver, kidney, and heart (cynomolgus monkeys): high levels of DNA adducts |
| c1ccc2c(c1)cc1ccc3cccc4ccc2c1c34 [B[a]P, benzo[a]pyrene] | 9.2 | 5.2 to 16.3 | 5 |  | + (11–30 %) | 100 µM | (+) for MLA, CA, MN, Pig-a, comet, Hprt, and UDS | (+) for comet, MN, Pig-a and gene mutations |  | + (11–30 %) |  | Max. con. [8]: 100 µM |
| [Cl][Cd][Cl] [CdCl2, cadmium chloride] | 0.9 | 0.5 to 1.6 | 2 | + (1.5 < ratio ≤ 2, and p < 0.05) | + (11–30 %) | 4 µM | (+) for MN, CA, MLA, Hprt, comet | (+) for CA and MN, comet in liver | 4 µM | ++ (31–50 %) | (+) for lung, prostate, etc. | LEC (lowest effective concentration) [1]: 1 µM; BMDU/BMDL [1]: 3.2; Cytotoxicity ([2]; PHHs, 4 μM): 25%; Cytotoxicity ([5]; PMHs, 4 μM, 24-h exposure): 43%; BMDU/BMDL [6]: 2.3; BMD50 [6]: 0.37 µM and 0.4 µM; DNA damage (ratio of %DNA in tail at highest concentration to vehicle control) [6]: +++ (the ratio > 5); LEC (lowest effective concentration) [6]: 2 µM; BMDL50–BMDU50 [6]: 0.2 to 0.5 µM; Potency ranking [6]: 1; fold increase in % tail DNA (DNA damage) compared to the vehicle control [6]: 6.1–8.1 fold |
| COc1cc2c(c(OC)c1OC)-c1ccc(OC)c(=O)cc1[C@@H](NC(C)=O)CC2 [Colchicine] |  |  |  |  | + (11–30 %) |  |  |  |  | + (11–30 %) |  |  |
| COc1cc(/C=C/C(=O)CC(=O)/C=C/c2ccc(O)c(OC)c2)ccc1O [Curcumin] |  |  |  |  | + (11–30 %) | 40 µM |  |  | 40 µM | + (11–30 %) |  |  |
| Cc1c2ccccc2c(C)c2c1ccc1ccccc12 [DMBA, 7,12-dimethylbenzanthracene] | 15.1 | 8.5 to 25.8 | 6 | ++ (2 < ratio ≤ 5) | − (cytotoxicity of 0–10 %) | 250 µM | (+) for MLA, CA, MN, comet, and UDS | (+) for MN and Pig-a in blood, comet in liver, CA in BM, gene mutation | 500 µM | + (11–30 %) | (+) for mammary liver, skin tumor, etc. | LEC (lowest effective concentration) [1]: 62.5 µM; BMDU/BMDL [1]: 3.0; cytotoxic effects (in words) ([5]; PMHs, ATP assay, 24-h exposure): cytotoxic effects over the same range of concentrations, but only in PMHs; BMD50 fold higher in PHHs than in PMHs (lower in PMHs) ([6]; CometChip BMD50, PHH vs PMH): 3.8 fold and 3.75 fold; BMDU/BMDL [6]: 2.4; BMD50 [6]: 4.0 µM; DNA damage (ratio of %DNA in tail at highest concentration to vehicle control) [6]: +++ (the ratio > 5); LEC (lowest effective concentration) [6]: 31.25 µM; BMDL50–BMDU50 [6]: 2.6 to 6.1 µM; Potency ranking [6]: 3; fold increase in % tail DNA (DNA damage) compared to the vehicle control [6]: 6.1–8.1 fold; LEC fold higher in PHHs than in PMHs ([6]; comet assay LEC, PHH vs PMH): 2 fold |
| CCc1cc(C(N)=S)ccn1 [Ethionamide] |  |  |  | − (The ratio ≤ 1.5-fold and p ≥ 0.05) | + (11–30 %) | 2000 µM |  | (−) for comet | 2000 µM | + (11–30 %) | (−) in rats and mice |  |
| Oc1ccc(O)cc1 [HQ, hydroquinone] |  |  |  | − (The ratio ≤ 1.5-fold and p ≥ 0.05) | ++ (31–50 %) | 200 µM | (+) for MLA, MN, CA, comet | (+) for CA, MN; (−) for comet and TG in liver and stomach | 200 µM | + (11–30 %) | (+) for liver and kidney adenoma | cell viability ([2]; PHHs, 200 μM, range given for cisplatin and HQ together): 55–63%; viability at 24 h, 200 µM [9]: 78 to 81% |
| Cn1c(N)nc2c3cccnc3ccc21 [IQ, 2-amino-3-methylimidazo-[4,5-f]-quinoline] |  |  |  |  |  |  |  |  |  |  |  | DNA adducts in several organs, particularly liver, kidney, and heart (cynomolgus monkeys): high levels of DNA adducts |
| Cn1c(N)nc2ncc(-c3ccccc3)cc21 [PhIP, 2-amino-1-me-thyl-6-phenylimidazo-[4,5-b]-pyridine] |  |  |  |  |  |  |  |  |  |  |  | DNA adducts in several organs, particularly liver, kidney, and heart (cynomolgus monkeys): high levels of DNA adducts |
| Oc1cccc(O)c1 [Resorcinol] |  |  |  | − (The ratio ≤ 1.5-fold and p ≥ 0.05) | ++ (31–50 %) | 2000 µM |  |  | 1000 µM | ++ (31–50 %) | (−) in rats and mice |  |
| Nc1ccccc1C(=O)O [o-Anthranilic acid] |  |  |  | − (The ratio ≤ 1.5-fold and p ≥ 0.05) | − (cytotoxicity of 0–10 %) | 5000 µM |  | (−) for Pig-a, MN, CA, comet | 5000 µM | ++ (31–50 %) |  | cytotoxic effects (in words) ([5]; PMHs, ATP assay, 24-h exposure): cytotoxic effects over the same range of concentrations, but only in PMHs; DNA damage (ratio of %DNA in tail at highest concentration to vehicle control) [6]: − (The ratio ≤ 1.5-fold and p ≥ 0.05) |
